From ChEMBL document CHEMBL1201862, “PubChem BioAssay data set” (2004)
Activity calls are given as the source filed them.

Legend:
Assay type in all cases: functional
[1] = biological target: Serine/threonine-protein kinase TBK1 (Homo sapiens, UniProt Q9UHD2); test: Navigating the Kinome. Panel member name: TBK1
[2] = biological target: Tyrosine-protein kinase receptor TYRO3 (Homo sapiens, UniProt Q06418);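 note: TYRO3 value obtained as one member of a kinome-wide profiling panel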
[3] = biological target: Tyrosine-protein kinase Lck (Homo sapiens, UniProt P06239);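 note: lck was assayed as one member of a kinase panel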
Activin receptor type-1 = biological target: T1, Activin receptor type-1 (Homo sapiens, UniProt Q04771); test: Navigating the Kinome. Panel member name: ACVR1
T1 sequence (Q04771 whole entry): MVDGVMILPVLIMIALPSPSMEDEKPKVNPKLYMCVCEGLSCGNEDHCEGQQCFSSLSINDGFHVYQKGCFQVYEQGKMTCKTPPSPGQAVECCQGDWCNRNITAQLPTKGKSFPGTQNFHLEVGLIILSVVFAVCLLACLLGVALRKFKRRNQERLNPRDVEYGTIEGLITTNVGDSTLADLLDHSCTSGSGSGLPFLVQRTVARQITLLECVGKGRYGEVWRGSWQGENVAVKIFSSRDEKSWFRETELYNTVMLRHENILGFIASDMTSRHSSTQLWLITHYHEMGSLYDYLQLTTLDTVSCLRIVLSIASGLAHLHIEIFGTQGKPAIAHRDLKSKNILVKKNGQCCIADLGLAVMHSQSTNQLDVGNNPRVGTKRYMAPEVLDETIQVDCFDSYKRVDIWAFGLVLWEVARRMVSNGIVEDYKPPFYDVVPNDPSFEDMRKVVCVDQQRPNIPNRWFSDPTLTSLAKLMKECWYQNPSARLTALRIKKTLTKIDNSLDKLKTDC

[4] = biological target: Tyrosine-protein kinase BTK (Homo sapiens, UniProt Q06187)
[5] = biological target: Tyrosine-protein kinase JAK3 (Homo sapiens, UniProt P52333)
[6] = biological target: Serine/threonine-protein kinase TAO1 (Homo sapiens, UniProt Q7L7X3)
[7] = biological target: MAP/microtubule affinity-regulating kinase 3 (Homo sapiens, UniProt P27448);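 note: MARK3 affinity measured as one member of a kinome panel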
[8] = biological target: Insulin-like growth factor 1 receptor (Homo sapiens, UniProt P08069); test: Navigating the Kinome. Panel member name: IGF1R
[9] = biological target: Leucine-rich repeat serine/threonine-protein kinase 2 (Homo sapiens, UniProt Q5S007);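 note: value from a broad kinome-wide panel profiling study in which LRRK2 was one of the kinases tested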
[10] = biological target: Tyrosine-protein kinase Fyn (Homo sapiens, UniProt P06241)
[11] = biological target: Cyclin-dependent kinase 7 (Homo sapiens, UniProt P50613);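 note: value comes from a kinome-wide kinase profiling panel in which CDK7 is one member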
[12] = biological target: Vascular endothelial growth factor receptor 1 (Homo sapiens, UniProt P17948);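 note: measured within a kinome-wide profiling panel, FLT1 as the panel member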
[13] = biological target: BDNF/NT-3 growth factors receptor (Homo sapiens, UniProt Q16620);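 note: NTRK2 measured as one member of a broad kinome-wide kinase profiling panel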
[14] = biological target: Macrophage-stimulating protein receptor (Homo sapiens, UniProt Q04912); test: Navigating the Kinome. Panel member name: MST1R
[15] = biological target: Macrophage colony-stimulating factor 1 receptor (Homo sapiens, UniProt P07333);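 note: value comes from the Navigating the Kinome screening panel, CSF1R member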
[16] = biological target: Mitogen-activated protein kinase 10 (Homo sapiens, UniProt P53779); test: Navigating the Kinome. Panel member name: MAPK10

Measured: Ki

Chain of Mitogen-activated protein kinase 10 (P53779 whole entry): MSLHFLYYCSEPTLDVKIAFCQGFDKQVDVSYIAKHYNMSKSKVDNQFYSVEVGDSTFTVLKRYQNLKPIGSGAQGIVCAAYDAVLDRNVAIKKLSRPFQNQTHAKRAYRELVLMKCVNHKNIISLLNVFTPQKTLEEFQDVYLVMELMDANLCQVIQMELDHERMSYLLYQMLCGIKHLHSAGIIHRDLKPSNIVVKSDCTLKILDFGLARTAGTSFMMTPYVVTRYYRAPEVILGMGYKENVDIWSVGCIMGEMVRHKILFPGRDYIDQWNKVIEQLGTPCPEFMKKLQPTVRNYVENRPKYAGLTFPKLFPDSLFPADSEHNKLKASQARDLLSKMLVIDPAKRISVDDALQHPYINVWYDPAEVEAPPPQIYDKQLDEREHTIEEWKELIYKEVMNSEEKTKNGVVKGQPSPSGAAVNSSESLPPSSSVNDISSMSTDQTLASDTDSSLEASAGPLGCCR
Chain of BDNF/NT-3 growth factors receptor (Q16620 whole entry): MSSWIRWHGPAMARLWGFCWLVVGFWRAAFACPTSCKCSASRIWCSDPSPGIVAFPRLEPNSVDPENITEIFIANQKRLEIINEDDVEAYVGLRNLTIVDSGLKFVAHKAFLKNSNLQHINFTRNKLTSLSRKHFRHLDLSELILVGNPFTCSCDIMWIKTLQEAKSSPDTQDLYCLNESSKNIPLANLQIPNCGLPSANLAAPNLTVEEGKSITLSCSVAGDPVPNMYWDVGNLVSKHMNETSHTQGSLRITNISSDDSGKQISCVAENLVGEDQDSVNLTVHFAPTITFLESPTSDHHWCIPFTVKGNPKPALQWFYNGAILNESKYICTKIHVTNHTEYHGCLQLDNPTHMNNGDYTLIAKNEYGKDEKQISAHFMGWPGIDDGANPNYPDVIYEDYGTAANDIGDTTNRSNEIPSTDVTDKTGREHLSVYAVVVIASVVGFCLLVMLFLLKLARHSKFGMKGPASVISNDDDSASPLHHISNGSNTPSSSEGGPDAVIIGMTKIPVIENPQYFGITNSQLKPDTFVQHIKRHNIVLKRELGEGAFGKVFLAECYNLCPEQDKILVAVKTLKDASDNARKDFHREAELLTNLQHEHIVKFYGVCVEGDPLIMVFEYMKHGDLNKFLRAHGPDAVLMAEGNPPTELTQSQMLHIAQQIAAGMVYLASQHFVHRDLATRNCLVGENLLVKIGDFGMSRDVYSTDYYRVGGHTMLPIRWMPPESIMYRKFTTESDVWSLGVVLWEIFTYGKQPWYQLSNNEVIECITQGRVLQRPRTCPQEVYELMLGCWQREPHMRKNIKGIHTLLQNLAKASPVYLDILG
Chain of Serine/threonine-protein kinase TAO1 (Q7L7X3 whole entry): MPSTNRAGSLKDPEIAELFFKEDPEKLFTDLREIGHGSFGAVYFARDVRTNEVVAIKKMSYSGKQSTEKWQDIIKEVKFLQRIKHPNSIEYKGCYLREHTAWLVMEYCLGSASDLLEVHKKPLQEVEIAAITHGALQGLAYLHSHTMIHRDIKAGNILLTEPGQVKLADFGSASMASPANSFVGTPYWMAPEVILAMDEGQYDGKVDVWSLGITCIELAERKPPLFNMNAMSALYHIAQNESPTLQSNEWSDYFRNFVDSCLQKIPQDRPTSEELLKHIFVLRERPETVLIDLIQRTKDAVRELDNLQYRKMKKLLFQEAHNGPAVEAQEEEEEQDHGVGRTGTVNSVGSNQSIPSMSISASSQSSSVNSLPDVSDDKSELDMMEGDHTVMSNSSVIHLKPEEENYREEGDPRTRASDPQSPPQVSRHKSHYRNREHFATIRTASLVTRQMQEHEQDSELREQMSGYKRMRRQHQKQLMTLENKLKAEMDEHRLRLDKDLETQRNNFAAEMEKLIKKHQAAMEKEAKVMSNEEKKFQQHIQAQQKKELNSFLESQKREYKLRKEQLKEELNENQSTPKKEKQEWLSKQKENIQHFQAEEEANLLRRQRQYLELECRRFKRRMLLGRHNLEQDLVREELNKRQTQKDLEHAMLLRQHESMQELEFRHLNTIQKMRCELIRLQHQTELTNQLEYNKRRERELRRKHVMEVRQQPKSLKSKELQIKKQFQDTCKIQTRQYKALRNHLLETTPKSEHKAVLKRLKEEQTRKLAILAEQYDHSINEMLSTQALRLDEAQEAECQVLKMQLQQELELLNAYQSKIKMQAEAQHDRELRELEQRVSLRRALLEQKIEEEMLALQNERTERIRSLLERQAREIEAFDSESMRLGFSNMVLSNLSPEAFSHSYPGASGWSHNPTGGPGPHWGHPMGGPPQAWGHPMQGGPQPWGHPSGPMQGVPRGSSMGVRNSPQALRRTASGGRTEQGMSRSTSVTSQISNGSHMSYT
Chain of Leucine-rich repeat serine/threonine-protein kinase 2 (Q5S007 whole entry): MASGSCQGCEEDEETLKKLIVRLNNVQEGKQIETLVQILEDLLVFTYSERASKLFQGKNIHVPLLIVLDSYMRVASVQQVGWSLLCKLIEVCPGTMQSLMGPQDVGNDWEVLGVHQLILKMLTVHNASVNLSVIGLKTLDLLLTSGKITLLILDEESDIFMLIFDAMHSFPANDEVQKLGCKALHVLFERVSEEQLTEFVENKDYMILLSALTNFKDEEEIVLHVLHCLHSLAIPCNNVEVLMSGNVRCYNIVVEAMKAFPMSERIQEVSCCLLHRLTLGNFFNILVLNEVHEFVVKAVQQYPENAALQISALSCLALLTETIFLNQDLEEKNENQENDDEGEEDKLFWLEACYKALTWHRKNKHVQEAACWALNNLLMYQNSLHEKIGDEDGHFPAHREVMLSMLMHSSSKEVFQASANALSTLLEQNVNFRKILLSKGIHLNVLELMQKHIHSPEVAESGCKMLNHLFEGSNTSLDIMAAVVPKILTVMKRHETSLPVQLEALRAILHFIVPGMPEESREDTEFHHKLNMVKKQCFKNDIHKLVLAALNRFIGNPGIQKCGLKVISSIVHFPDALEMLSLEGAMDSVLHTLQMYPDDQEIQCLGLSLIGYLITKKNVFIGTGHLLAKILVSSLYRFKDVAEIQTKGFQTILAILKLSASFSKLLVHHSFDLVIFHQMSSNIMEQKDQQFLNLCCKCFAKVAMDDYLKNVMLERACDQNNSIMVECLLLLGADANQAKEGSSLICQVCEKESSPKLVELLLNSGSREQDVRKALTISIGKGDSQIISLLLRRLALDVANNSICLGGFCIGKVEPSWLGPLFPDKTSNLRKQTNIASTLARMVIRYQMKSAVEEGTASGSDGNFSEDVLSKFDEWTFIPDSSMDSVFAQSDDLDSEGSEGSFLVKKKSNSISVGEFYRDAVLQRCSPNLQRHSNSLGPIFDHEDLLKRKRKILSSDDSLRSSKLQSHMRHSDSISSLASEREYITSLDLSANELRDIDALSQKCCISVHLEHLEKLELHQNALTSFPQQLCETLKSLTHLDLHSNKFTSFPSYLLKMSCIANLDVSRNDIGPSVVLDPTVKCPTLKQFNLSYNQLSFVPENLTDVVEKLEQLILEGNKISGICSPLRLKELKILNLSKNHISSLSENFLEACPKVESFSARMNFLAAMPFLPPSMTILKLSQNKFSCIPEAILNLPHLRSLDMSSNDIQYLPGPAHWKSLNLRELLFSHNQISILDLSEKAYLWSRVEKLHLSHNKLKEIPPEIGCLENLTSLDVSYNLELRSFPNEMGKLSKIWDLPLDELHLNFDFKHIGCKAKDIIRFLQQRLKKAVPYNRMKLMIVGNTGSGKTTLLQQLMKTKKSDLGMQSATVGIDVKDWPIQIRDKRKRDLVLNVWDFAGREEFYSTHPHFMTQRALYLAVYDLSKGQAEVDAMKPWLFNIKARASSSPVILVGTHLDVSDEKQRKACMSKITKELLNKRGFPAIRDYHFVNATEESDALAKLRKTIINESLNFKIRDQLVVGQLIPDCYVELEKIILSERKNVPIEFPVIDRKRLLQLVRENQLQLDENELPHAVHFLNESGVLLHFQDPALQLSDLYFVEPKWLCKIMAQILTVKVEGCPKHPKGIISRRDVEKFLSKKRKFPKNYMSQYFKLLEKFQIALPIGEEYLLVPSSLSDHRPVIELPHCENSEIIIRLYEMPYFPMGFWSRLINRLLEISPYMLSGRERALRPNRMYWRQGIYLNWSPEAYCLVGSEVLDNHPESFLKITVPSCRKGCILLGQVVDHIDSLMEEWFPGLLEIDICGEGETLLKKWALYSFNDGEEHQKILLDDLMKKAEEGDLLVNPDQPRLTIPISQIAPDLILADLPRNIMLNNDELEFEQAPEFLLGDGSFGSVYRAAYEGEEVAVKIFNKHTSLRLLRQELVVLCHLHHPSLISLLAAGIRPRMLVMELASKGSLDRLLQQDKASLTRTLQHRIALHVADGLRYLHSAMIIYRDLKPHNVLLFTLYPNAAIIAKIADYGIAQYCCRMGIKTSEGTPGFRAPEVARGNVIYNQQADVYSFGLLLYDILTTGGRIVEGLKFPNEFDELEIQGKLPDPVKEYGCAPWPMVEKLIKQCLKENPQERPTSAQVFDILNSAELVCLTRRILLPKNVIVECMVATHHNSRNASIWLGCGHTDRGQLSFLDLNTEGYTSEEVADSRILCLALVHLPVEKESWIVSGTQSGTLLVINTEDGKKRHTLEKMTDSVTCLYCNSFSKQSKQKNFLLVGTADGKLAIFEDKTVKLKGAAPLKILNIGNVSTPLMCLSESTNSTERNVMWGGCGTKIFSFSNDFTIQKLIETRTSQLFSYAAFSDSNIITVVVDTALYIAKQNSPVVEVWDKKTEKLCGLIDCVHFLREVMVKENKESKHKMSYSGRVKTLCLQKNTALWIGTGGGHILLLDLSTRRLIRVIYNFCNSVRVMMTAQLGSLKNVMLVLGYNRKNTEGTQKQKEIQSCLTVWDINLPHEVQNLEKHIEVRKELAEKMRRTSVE

NC(=O)c1ccc(-c2nc(-c3ccc4c(c3)OCO4)c(-c3ccccn3)[nH]2)cc1 [SB-431542]
inactive: [1] > 3.16 µM | [2] > 3.16 µM | [3] > 6.31 µM | Activin receptor type-1 > 3.98 µM | [4] > 6.31 µM | [5] > 5.01 µM | [6] > 2.51 µM | [7] > 5.01 µM | [8] > 2.51 µM | [9] > 2.51 µM | [10] > 6.31 µM | [11] > 3.98 µM | [12] > 3.98 µM | [13] > 3.98 µM | [14] > 3.98 µM | [15] > 2.51 µM | [16] > 3.16 µM
